Experimental findings from US8263610B2, “Substituted imidazolyl-5,6-dihydrobenzo[N]isoquinoline compounds” (ArQule, Inc., priority 2008, dated 2012) are described below.

Assay in all cases: MTS assay, inhibition of cell growth
Common to all, as to type: cell-based
(Formazan colour is commonly taken as a measure of viable cells.)

In assay [1] the test system is NCI-H1299 cells. The following applies: Homo sapiens, compound at 10 μM, 72 hours. The protocol:
(§1) MDA-MB-231, DLD-1, Kato III NCI-H1299, PACA-2 cells, were maintained at 37° C., 5% CO2 in DMEM media supplemented with 10% fetal bovine serum, penicillin/streptomycin and fungizone (Invitrogen). Cells were seeded into 96-well tissue culture plates at 3000 per well and cultured at 37° C. for 18 hours. Test compounds were dissolved and diluted to 300× in DMSO then further diluted 1:40 in DMEM before addition to cells (1:7.5 dilution). Cells were incubated with test compounds for 72 hours followed by incubation with tetrazolium compound (3-(4,5-dimethylthiazol-2-yl)-5-(3-carboxymethoxyphenyl)-2-(4-sulfophenyl)-2H-tetrazolium, inner salt; MTS) and the electron coupling reagent, phenazine methosulfate (PMS) for 4 hours. […] The ability of compounds to inhibit cell growth in this assay is correlated with the reduction of dehydrogenase enzyme activity found in metabolically active cells. The measurement of the absorbance of the formazan was assessed using an ENVISION™ (Perkin Elmer) microplate reader at 492 nm.

Assay [2] deals with PACA-2 cells. The note with it: compound at 10 μM, 72 hours. As for the experimental part:
as §1

Assay [3] relates to Kato III cells. The following applies: Homo sapiens, compound at 10 μM, 72 hours. The protocol:
as §1

Assay [4] relates to DLD-1 cells. The note with it: Homo sapiens, compound at 10 μM, 72 hours. The protocol:
as §1

Assay [5] deals with MDA-MB-231 cells. The following applies: Homo sapiens, compound at 10 μM, 72 hours. As for the experimental part:
as §1

Each structure is given as a SMILES string.

As for `O=S(=O)(Cc1noc2ccccc12)NC1CCc2c(cnc3[nH]ncc23)C1` (centres unmarked) [1-(1,2-benzisoxazol-3-yl)-N-(6,7,8,9-tetrahydro-3H-pyrazolo[3,4-c]isoquinolin-7-yl)methanesulfonamide], the inhibition – broadly, the change of the read-out against control, counted positive when it falls – at 10 µM is 25 to 49% in assay [1]; 75 to 100% in assay [2]; 75 to 100% in assay [3]; 50 to 74% in assay [4]; 25 to 49% in assay [5].

On to `O=C(Nc1cccc2ccccc12)NC1CCc2c(cnc3[nH]ncc23)C1` (centres unmarked) [1-(1-naphthyl)-3-(6,7,8,9-tetrahydro-3H-pyrazolo[3,4-c]isoquinolin-7-yl)urea], for which the inhibition at 10 µM in assay [1] was in the range of 25 to 49%; in assay [2] it was 25 to 49%; in assay [3], 75 to 100%; in assay [4] it was 75 to 100%; in assay [5], 50 to 74%.

On to `O=C(NCCc1ccccc1)NC1CCc2c(cnc3[nH]ncc23)C1` (centres unmarked) [1-(2-phenylethyl)-3-(6,7,8,9-tetrahydro-3H-pyrazolo[3,4-c]isoquinolin-7-yl)urea], for which the inhibition at 10 µM in assay [1], in assay [2], in assay [3], in assay [4] and in assay [5] was 75 to 100% throughout.

On to `O=C(Nc1cccc(Cl)c1F)NC1CCc2c(cnc3[nH]ncc23)C1` (centres unmarked) [1-(3-chloro-2-fluorophenyl)-3-(6,7,8,9-tetrahydro-3H-pyrazolo[3,4-c]isoquinolin-7-yl)urea], for which the inhibition at 10 µM in assay [1], in assay [2], in assay [3], in assay [4] and in assay [5] was 75 to 100% throughout.

As to `Cc1ccc(-c2n[nH]c3ncc4c(c23)CCN(C(=O)Nc2ccccc2)C4)o1` [1-(5-methylfuran-2-yl)-N-phenyl-3,6,8,9-tetrahydro-7H-pyrazolo[3,4-c][2,7]naphthyridine-7-carboxamide], the inhibition at 10 µM in assay [1], in assay [2], in assay [3], in assay [4] and in assay [5] was 75 to 100% each time.

In the case of `O=C(C(c1ccccc1)N1CCNCC1)N1CCc2c(cnc3[nH]nc(Br)c23)C1` (centres unmarked) [1-bromo-7-[phenyl(piperperazin-1-yl)acetyl]-6,7,8,9-tetrahydro-3H-pyrazolo[3,4-c][2,7]naphthyridine], the inhibition at 10 µM in assay [1], in assay [2], in assay [3], in assay [4] and in assay [5] was 75 to 100% in each case.

Take `O=C(Nc1cccc(Oc2ccccc2)c1)N1CCc2c(cnc3[nH]nc(Br)c23)C1` [1-bromo-N-(3-phenoxyphenyl)-3,6,8,9-tetrahydro-7H-pyrazolo[3,4-c][2,7]naphthyridine-7-carboxamide]: the inhibition at 10 µM fell in the range of 50 to 74% in assay [1]; 50 to 74% in assay [2]; 75 to 100% in assay [3]; 75 to 100% in assay [4]; 25 to 49% in assay [5].

Turning to `Cc1ccc(C)c(S(=O)(=O)NC2CCc3c(cnc4[nH]ncc34)C2)c1` (centres unmarked) [2,5-dimethyl-N-(6,7,8,9-tetrahydro-3H-pyrazolo[3,4-c]isoquinolin-7-yl)benzenesulfonamide], the inhibition at 10 µM in assay [1], in assay [2], in assay [3], in assay [4] and in assay [5] was 75 to 100% each time.

Regarding `COc1ccc(Cn2ncc3c4c(cnc32)CCc2[nH]c(=O)ccc2-4)cc1` [3-(4-methoxybenzyl)-3,6,7,8-tetrahydro-9H-pyrazolo[4,3-a][3,7]phenanthrolin-9-one], the inhibition at 10 µM in assay [1], in assay [2], in assay [3], in assay [4] and in assay [5] was 75 to 100% in each case.

On to `CNc1ncc2c(n1)CCc1cnc3c(cnn3Cc3ccc(OC)cc3)c1-2` [3-(4-methoxybenzyl)-N-methyl-6,7-dihydro-3H-pyrazolo[4′,3′:5,6]pyrido[4,3-f]quinazolin-9-amine], for which the inhibition at 10 µM is less than 24% in assay [1]; 75 to 100% in assay [2]; 75 to 100% in assay [3]; 75 to 100% in assay [4]; 75 to 100% in assay [5].

In the case of `Nc1nc(N2CCc3c(cnc4[nH]ncc34)C2)c2cn[nH]c2n1` [4-(3,6,8,9-tetrahydro-7H-pyrazolo[3,4-c][2,7]naphthyridin-7-yl)-1H-pyrazolo[3,4-d]pyrimidin-6-amine], the inhibition at 10 µM was in the range of 25 to 49% in assay [1]; 75 to 100% in assay [2]; 75 to 100% in assay [3]; 75 to 100% in assay [4]; 50 to 74% in assay [5].

Regarding `c1nc2[nH]ncc2c2c1CNCC2` [6,7,8,9-tetrahydro-3H-pyrazolo[3,4-c][2,7]naphthyridine], the inhibition at 10 µM in assay [1] was in the range of 25 to 49%; in assay [2], 75 to 100%; in assay [3] it was 25 to 49%; in assay [4], 75 to 100%; in assay [5], 75 to 100%.

In the case of `c1cc2c(s1)CCc1cnc3[nH]ncc3c1-2` [6,7-dihydro-3H-pyrazolo[3,4-c]thieno[3,2-f]isoquinoline], the inhibition at 10 µM in assay [1], in assay [2], in assay [3], in assay [4] and in assay [5] was 75 to 100% throughout.

Take `Nc1nc(N)nc(N2CCc3c(cnc4[nH]ncc34)C2)n1` [6-(3,6,8,9-tetrahydro-7H-pyrazolo[3,4-c][2,7]naphthyridin-7-yl)-1,3,5-triazine-2,4-diamine]: the inhibition at 10 µM in assay [1], in assay [2], in assay [3], in assay [4] and in assay [5] was 75 to 100% each time.

Take `Nc1nc(N2CCc3c(cnc4[nH]ncc34)C2)c2nc[nH]c2n1` [6-(3,6,8,9-tetrahydro-7H-pyrazolo[3,4-c][2,7]naphthyridin-7-yl)-9H-purin-2-amine]: the inhibition at 10 µM in assay [1], in assay [2], in assay [3], in assay [4] and in assay [5] was 75 to 100% throughout.

On to `Cc1cc(NC2CCc3c(cnc4[nH]ncc34)C2)nc(N)n1` (centres unmarked) [6-methyl-N~4~-(6,7,8,9-tetrahydro-3H-pyrazolo[3,4-c]isoquinolin-7-yl)pyrimidine-2,4-diamine], for which the inhibition at 10 µM in assay [1] lay in the range of 25 to 49%; in assay [2], 75 to 100%; in assay [3], 75 to 100%; in assay [4], 75 to 100%; in assay [5], 75 to 100%.

In the case of `Clc1ccccc1C1Cc2cnc3[nH]nc(-c4cnn(C5CCNCC5)c4)c3c2-c2ccccc21` (centres unmarked) [7-(2-chlorophenyl)-1-(1-piperidin-4-yl-1H-pyrazol-4-yl)-6,7-dihydro-3H-benzo[f]pyrazolo[3,4-c]isoquinoline], the inhibition at 10 µM in assay [1], in assay [2], in assay [3], in assay [4] and in assay [5] was 75 to 100% throughout.

For `O=S(=O)(c1cccs1)N1CCc2c(cnc3[nH]ncc23)C1` [7-(2-thienylsulfonyl)-6,7,8,9-tetrahydro-3H-pyrazolo[3,4-c][2,7]naphthyridine], the inhibition at 10 µM in assay [1], in assay [2], in assay [3], in assay [4] and in assay [5] was 75 to 100% each time.

Consider `CS(=O)(=O)N1CCc2c(cnc3[nH]ncc23)C1` [7-(methylsulfonyl)-6,7,8,9-tetrahydro-3H-pyrazolo[3,4-c][2,7]naphthyridine], for which the inhibition at 10 µM in assay [1], in assay [2], in assay [3], in assay [4] and in assay [5] was 75 to 100% throughout.

`Clc1ccc(C2Cc3cnc4[nH]ncc4c3-c3ccccc32)c(Cl)c1` (centres unmarked) [drawing 557, 7-(2,4-dichlorophenyl)-6,7-dihydro-3H-benzo[f]pyrazolo[3,4-c]isoquinoline]: the inhibition at 10 µM in assay [1] was 25 to 49%; in assay [2], less than 24%; in assay [3] it was 50 to 74%; in assay [4] it was 50 to 74%.

Take `Cc1cc(C)c2c(c1)-c1c(cnc3[nH]ncc13)CC2` [drawing 561, 8,10-dimethyl-6,7-dihydro-3H-benzo[f]pyrazolo[3,4-c]isoquinoline]: the inhibition at 10 µM is less than 24% in assay [2], 25 to 49% in assay [3], 75 to 100% in assay [4] and 25 to 49% in assay [5].

Take `O=C(Nc1ccccc1)C1CCc2c(cnc3[nH]ncc23)C1` (centres unmarked) [drawing 584, N-phenyl-6,7,8,9-tetrahydro-3H-pyrazolo[3,4-c]isoquinoline-7-carboxamide]: the inhibition at 10 µM in assay [2] was less than 24%; in assay [3], 75 to 100%; in assay [4], 50 to 74%; in assay [5] it was less than 24%.
